Several values for one entry are separate records, joined by “and”; a condition that tells them apart may be missing. Identical values can stand only once. Non-standard residues stand in square brackets, D forms with d. Residues, ends and D or L forms follow the SMILES beside them. *: point of attachment. dPhe(4-NHCONH2) = NC(=O)Nc1ccc(C[C@@H](N)C(=O)O)cc1; Dihydroorotyl(S) = O=C1C[C@@H](C(=O)*)NC(=O)N1; dPhe(4-Cl) = N[C@H](Cc1ccc(Cl)cc1)C(=O)O; Phe(4-NH2) = Nc1ccc(C[C@H](N)C(=O)O)cc1; d2Nal = N[C@H](Cc1ccc2ccccc2c1)C(=O)O; Lys(iPr) = CC(C)NCCCC[C@H](N)C(=O)O; d3Pal = N[C@H](Cc1cccnc1)C(=O)O
Experiments:
[1] = test system: castrated male DCM mice; test: Partial restoration of T (implanted pellets) in castrated DCM mice; assay type: in vivo, mouse
Description: Ejection fraction (EF, %) was analyzed in littermate DCM male mice (on C57BL/6J background) at 20 weeks of age corresponding to Stage D heart failure (HF) in non-castrated DCM mice. […] Dotted line: level in WT congenic group (n=8). T plasma levels analyzed by ELISA. Data analyzed by One-way-ANOVA with Tukey's multiple comparison test and represent mean+/−SEM; *=between DCM groups; **P<0.001; +=DCM groups vs. WT group: ++++P<0.0001.
FIGS. 2A-2B show lowering testosterone (T) levels increases cGMP levels in plasma (FIG. 2A) and cytosol fraction of cardiac LV extract (FIG. 2B) of male DCM mice. cGMP was analyzed in littermate mice by ELISA; data were normalized to 100 ug of total protein in extracts. Groups: at 20 weeks of age=Stage D heart failure (HF) in non-castrated DCM mice. […] Dotted line: level in WT congenic group (n=8). T plasma levels analyzed by ELISA. Data analyzed by One-way-ANOVA with Tukey's multiple comparison test and represent mean+/−SEM; *=between DCM groups; **P<0.001; +=DCM groups vs. WT group: ++++P<0.0001.
Referring to FIG. 1, T suppression in male DCM mice (low level) by surgical castration (initiated at HF stage A) improves systolic dysfunction vs. non-castrated DCM group (normal level).

[2] = test system: male DCM mice; test: Degarelix treatment in progressive DCM mouse model: cardiac function, remodeling, edema, HF; assay type: in vivo
Description: Ejection fraction (EF, %) (FIG. 4A), heart-to-body weight ratios, HW/BW (FIG. 4B), lung-to-body weight ratios, LW/BW, (FIG. 4C) and pleural effusion, (FIG. 4D) were analyzed in male mice with DCM and WT control mice (C57BL/6J) at 20 weeks of age corresponding to Stage D HF in non-treated DCM mice. Groups: Normal non-T-treated DCM mice (black, left bar); Low T (˜20%) DCM mice treated with degarelix, 15 mg/kg subcutaneous injection every 4 weeks (blue, right bar). Dotted line: Levels in WT congenic group (n=8). T plasma level analyzed by ELISA. Data (FIG. 4A-4C) analyzed by One-way-ANOVA with Tukey's multiple comparison test and represent mean t SEM. (FIG. 4D) analyzed by Fisher exact test.
To gain translational insights relevant to human DCM-HF, inventors analyzed the outcome of T-lowering therapy in a well-established mouse progressive DCM model on C57BL/6J strain with defined age-related HF stages (time points) for evaluation of systolic function, edema, blood sample collections, etc., in studies of male and female DCM mice. This animal model is normotensive and without kidney dysfunction, and arrhythmia, which excludes variables of blood pressure, arrhythmias, and kidney dysfunction.
(§1) Treatment was initiated at 4 weeks of age when mice were at risk for DCM. The EF was analyzed at 20 weeks when DCM untreated mice progressed to Stage D HF. […] This treatment also elevated EF in males WT vs. untreated WT group (Mann-Whitney test: P<0.01).

[3] = test system: male DCM mice; test: Plasma biomarkers (ELISA) in degarelix-treated DCM mice; assay type: in vivo, mouse; details: 20 weeks of age
Description: Ejection fraction (EF, %) (FIG. 4A), heart-to-body weight ratios, HW/BW (FIG. 4B), lung-to-body weight ratios, LW/BW, (FIG. 4C) and pleural effusion, (FIG. 4D) were analyzed in male mice with DCM and WT control mice (C57BL/6J) at 20 weeks of age corresponding to Stage D HF in non-treated DCM mice. Groups: Normal non-T-treated DCM mice (black, left bar); Low T ( 20%) DCM mice treated with degarelix, 15 mg/kg subcutaneous injection every 4 weeks (blue, right bar). Dotted line: Levels in WT congenic group (n=8). T plasma level analyzed by ELISA. Data (FIG. 4A-4C) analyzed by One-way-ANOVA with Tukey's multiple comparison test and represent mean t SEM. (FIG. 4D) analyzed by Fisher exact test. […] Groups: at 20 weeks of age=Stage D HF in non-castrated DCM mice. Normal T (100%) non-treated DCM mice (black, left bar); Low T ( 17%) castrated or degarelix-treated DCM mice (blue, right bar); Dotted line: Levels in WT congenic group (n=6-8). T plasma level analyzed by ELISA. Data analyzed by One-way-ANOVA with Tukey's multiple comparison test and represented as mean f SEM; +++P<0.001 in DCM vs. WT group; ****P<0.0001 in castrated vs non-castrated DCM groups. […] Plasma biomarkers levels were analyzed in littermate mice with and without DCM. […] Groups: Normal T, non-treated DCM mice (black, left bar); Low T ( 20%), DCM mice treated with degarelix, 15 mg/kg subcutaneous injection every 4 weeks (blue, right bar). Dotted line: level in WT congenic group (n=6). T plasma level analyzed by ELISA. Data analyzed by One-way-ANOVA with Tukey's multiple comparison test and represent mean t SEM; *=between DCM groups: **P<0.01; DCM groups vs. WT group: ++++P<0.0001; +++P<0.001.

[4] = test system: male WT mice (C57BL/6J); test: Degarelix treatment of WT control mice (EF, plasma ANP and cGMP); assay type: in vivo, mouse; details: male WT vs untreated WT group
Description: as §1

[5] = test system: male and female mice with DCM and WT littermates; details: mouse, in vivo
[6] = test system: humans and mice; details: cited from earlier work

C[C@]12CC[C@H]3[C@@H](CCC4=CC(=O)CC[C@@]43C)[C@@H]1CC[C@@H]2O [T, testosterone]
cGMP levels in plasma ([1]; Reduced T vs Low T castrated DCM mice, FIG. 2A): lowered cGMP levels | cGMP levels in cardiac LV tissue ([1]; Reduced T vs Low T castrated DCM mice, FIG. 2B): lowered cGMP levels | T plasma level (relative to Normal T, 100%) ([1]; castrated DCM mice with partially restored T, 20 weeks of age, ELISA): ~60% | Ejection fraction (EF) ([1]; castrated DCM mice, implanted pellets for 3 months, vs castrated (Low T), FIG. 1): trend toward reduced EF

CC(=O)N[C@H](Cc1ccc2ccccc2c1)C(=O)N[C@H](Cc1ccc(Cl)cc1)C(=O)N[C@H](Cc1cccnc1)C(=O)N[C@@H](CO)C(=O)N[C@@H](Cc1ccc(NC(=O)[C@@H]2CC(=O)NC(=O)N2)cc1)C(=O)N[C@H](Cc1ccc(NC(N)=O)cc1)C(=O)N[C@@H](CC(C)C)C(=O)N[C@@H](CCCCNC(C)C)C(=O)N1CCC[C@H]1C(=O)N[C@H](C)C(N)=O [degarelix] (Ac-[d2Nal][dPhe(4-Cl)][d3Pal]S[Phe(4-NH2)](Dihydroorotyl(S))[dPhe(4-NHCONH2)]L[Lys(iPr)]P[dA]-NH2)
heart failure (HF) ([2]; 20 weeks of age): attenuates HF | heart-to-body weight ratio, HW/BW ([2]; 20 weeks of age, FIG. 4B, P<0.001): reduces pathologically elevated heart | lung-to-body weight ratio, LW/BW (pulmonary edema) ([2]; 20 weeks of age, FIG. 4C, P<0.01): reduced pulmonary edema | pleural effusion ([2]; 20 weeks of age, FIG. 4D, P<0.05, Fisher exact test): reduction | Ejection fraction (EF) ([2]; treatment from 4 weeks of age, analyzed at 20 weeks (Stage D HF in untreated), vs untreated DCM, FIG. 4A): significantly improved EF | plasma norepinephrine levels ([3]; FIG. 5A): lowering norepinephrine plasma levels | plasma renin activity (PRA) levels ([3]; FIG. 5C): normalization of PRA levels | pro-renin receptor ((P)RR) levels ([3]; FIG. 5E): normalization of (P)RR levels | total renin levels in circulation ([3]; FIG. 5F): did not affect total renin levels | plasma ANP levels (analyzed as NT-ANP) ([3]; degarelix 15 mg/kg s.c. every 4 weeks, FIG. 6A): increases plasma levels of ANP | plasma cGMP levels ([3]; degarelix 15 mg/kg s.c. every 4 weeks, FIG. 6B): increases plasma levels | T plasma level (relative to Normal T, 100%) ([3]; degarelix 15 mg/kg subcutaneous every 4 weeks, ELISA): ~20% and ~17% | Ejection fraction (EF) ([4]; Mann-Whitney P<0.01): elevated EF | plasma ANP levels ([4]; P<0.001 Mann-Whitney): elevated ANP and cGMP plasma levels | plasma cGMP levels ([4]; P<0.001 Mann-Whitney): elevated ANP and cGMP plasma levels | body weights [5]: did not influence | motor function [5]: did not influence | circulating T levels ([6]; humans and mice, reversible, without T surge and clinical side effects): to surgical castration level | muscle mass ([6]; in vivo): does not affect muscle mass

— patent US20250312409A1, “METHODS OF TREATING DILATED CARDIOMYOPATHY AND HEART FAILURE” (ARIZONA BOARD OF REGENTS ON BEHALF OF THE UNIVERSITY OF …, priority 2022, published 2025)
